# Where a SMILES comes first, the peptide text is derived from it.
# How the values were obtained:
# Escherichia coli [1] = experiment: Potentiation of colistin-induced antibacterial activity against Escherichia coli AR-0493 assessed as minimum re-sensitizing concentration; type: functional; conditions: read-out: MEC
# [2] = Selectivity index, ratio of GI50 for cytotoxicity against human HepG2 cells to MEC for potentiation of colistin-induced antibacterial activity against Escherichia coli AR-0493 assessed as minimum re-sensitizing concentration; type: toxicity, cell-based; conditions: read-out: Selectivity Index
# Escherichia coli [3] = experiment: Antibacterial activity against Escherichia coli AR-0493 by CLSI based susceptibility testing method; type: functional
# [4] = Cytotoxicity against human HepG2 cells by Cell Titer Glo assay; type: toxicity, cell-based
# Klebsiella pneumoniae [5] = experiment: Potentiation of colistin-induced antibacterial activity against Klebsiella pneumoniae AR-0497 harboring mcr-1 gene assessed as colistin MIC at 1 ug/ml; type: functional; conditions: dose 1 µg/ml
# Salmonella typhimurium [6] = experiment: Potentiation of colistin-induced antibacterial activity against Salmonella typhimurium AR-0539 harboring mcr-3 gene assessed as colistin MIC at 1 ug/ml; type: functional, Salmonella enterica subsp. enterica serovar Typhimurium; conditions: Salmonella enterica, dose 1 µg/ml
# Escherichia coli [7] = experiment: Potentiation of colistin-induced antibacterial activity against Escherichia coli AR-0538 harboring mcr-2 gene assessed as colistin MIC at 1 ug/ml; type: functional; conditions: dose 1 µg/ml
# Escherichia coli [8] = experiment: Potentiation of colistin-induced antibacterial activity against Escherichia coli AR-0493 harboring mcr-1 gene assessed as colistin MIC at 1 ug/ml; type: functional; conditions: dose 1 µg/ml
# Pseudomonas aeruginosa [9] = experiment: Potentiation of colistin-induced antibacterial activity against Pseudomonas aeruginosa AR-0239 assessed as colistin MIC at 1 ug/ml; type: functional; conditions: dose 1 µg/ml
# Salmonella typhimurium [10] = experiment: Potentiation of colistin-induced antibacterial activity against Salmonella typhimurium AR-0635 harboring mcr-4 gene assessed as colistin MIC at 1 ug/ml; type: functional, Salmonella enterica subsp. enterica serovar Typhimurium; conditions: Salmonella enterica, dose 1 µg/ml
# Acinetobacter baumannii [11] = experiment: Potentiation of colistin-induced antibacterial activity against Acinetobacter baumannii AR-0310 assessed as colistin MIC at 1 ug/ml; type: functional; conditions: dose 1 µg/ml
# Escherichia coli [12] = experiment: Synergistic antibacterial activity against Escherichia coli AR-0493 assessed as fractional inhibitory concentration index in presence of colistin by Checkerboard broth microdilution assay; type: functional
# Escherichia coli [13] = experiment: Antibacterial activity against Escherichia coli AR-0538 harboring mcr-2 gene; type: functional
# Salmonella typhimurium [14] = experiment: Antibacterial activity against Salmonella typhimurium AR-0539 harboring mcr-3 gene; type: functional, Salmonella enterica subsp. enterica serovar Typhimurium; conditions: Salmonella enterica
# Pseudomonas aeruginosa [15] = experiment: Antibacterial activity against Pseudomonas aeruginosa AR-0239; type: functional
# Acinetobacter baumannii [16] = experiment: Antibacterial activity against Acinetobacter baumannii AR-0310; type: functional
# Klebsiella pneumoniae [17] = experiment: Antibacterial activity against Klebsiella pneumoniae AR-0497 harboring mcr-1 gene; type: functional
# Salmonella typhimurium [18] = experiment: Antibacterial activity against Salmonella typhimurium AR-0635 harboring mcr-4 gene; type: functional, Salmonella enterica subsp. enterica serovar Typhimurium; conditions: Salmonella enterica
# Escherichia coli [19] = experiment: Antibacterial activity against Escherichia coli AR-0493 harboring mcr-1 gene; type: functional
smiles,measurement,setting,value
CC(C)(C)Nc1nc2nonc2nc1NC(C)(C)C,minimal effective concentration,Escherichia coli [1],8 µg/mL
C1CCC(Nc2nc3nonc3nc2NC2CCCCC2)CC1,minimal effective concentration,Escherichia coli [1],4 µg/mL
CCCNc1nc2nonc2nc1NCCC,minimal effective concentration,Escherichia coli [1],> 16 µg/mL
CCCCNc1nc2nonc2nc1NCCCC,minimal effective concentration,Escherichia coli [1],8 µg/mL
CCCCCCNc1nc2nonc2nc1NCCCCCC,minimal effective concentration,Escherichia coli [1],0.5 µg/mL
same,selectivity ratio,[2],1.2
same,MIC,Escherichia coli [3],> 64 µg/mL
same,GI50,[4],0.59 µg/mL
C1CCC(Nc2nc3nonc3nc2NC2CCCC2)C1,minimal effective concentration,Escherichia coli [1],8 µg/mL
Clc1cccc(Nc2nc3nonc3nc2Nc2cccc(Cl)c2)c1,MIC,Klebsiella pneumoniae [5],1 µg/mL
same,MIC,Salmonella typhimurium [6],1 µg/mL
same,MIC,Escherichia coli [7],1 µg/mL
same,MIC,Escherichia coli [8],1 µg/mL
same,MIC,Pseudomonas aeruginosa [9],1 µg/mL
same,MIC,Salmonella typhimurium [10],1 µg/mL
same,MIC,Acinetobacter baumannii [11],0.25 µg/mL
FC1(F)CC(CNc2nc3nonc3nc2Nc2cccc(Cl)c2)C1,minimal effective concentration,Escherichia coli [1],1 µg/mL
CC(C)CCNc1nc2nonc2nc1NCCC(C)C,minimal effective concentration,Escherichia coli [1],2 µg/mL
Clc1ccc(CNc2nc3nonc3nc2NCc2ccc(Cl)cc2)cc1,MIC,Klebsiella pneumoniae [5],2 µg/mL
same,MIC,Salmonella typhimurium [6],1 µg/mL
same,MIC,Escherichia coli [7],1 µg/mL
same,minimal effective concentration,Escherichia coli [1],0.125 µg/mL
same,selectivity ratio,[2],36
same,MIC,Escherichia coli [3],> 64 µg/mL
same,MIC,Escherichia coli [8],0.5 µg/mL
same,fractional inhibitory concentration index (FICI),Escherichia coli [12],0.07
same,MIC,Pseudomonas aeruginosa [9],1 µg/mL
same,GI50,[4],4.5 µg/mL
same,MIC,Salmonella typhimurium [10],2 µg/mL
same,MIC,Acinetobacter baumannii [11],0.5 µg/mL
Clc1cccc(Nc2nc3nonc3nc2NCCc2c[nH]c3ccc(Cl)cc23)c1,minimal effective concentration,Escherichia coli [1],1 µg/mL
CCCCCCCCCCNc1nc2nonc2nc1Nc1cccc(Cl)c1,minimal effective concentration,Escherichia coli [1],2 µg/mL
CC(C)CNc1nc2nonc2nc1Nc1cccc(Cl)c1,minimal effective concentration,Escherichia coli [1],2 µg/mL
CCCNc1nc2nonc2nc1Nc1cccc(Cl)c1,minimal effective concentration,Escherichia coli [1],1 µg/mL
CCCCCCCCCCCCNc1nc2nonc2nc1Nc1cccc(Cl)c1,minimal effective concentration,Escherichia coli [1],> 16 µg/mL
CCCCCCCCNc1nc2nonc2nc1Nc1cccc(Cl)c1,minimal effective concentration,Escherichia coli [1],1 µg/mL
CNc1nc2nonc2nc1Nc1cccc(Cl)c1,minimal effective concentration,Escherichia coli [1],8 µg/mL
Clc1ccc2[nH]cc(CCNc3nc4nonc4nc3NCCc3c[nH]c4ccc(Cl)cc34)c2c1,minimal effective concentration,Escherichia coli [1],> 16 µg/mL
Clc1cccc(Nc2nc3nonc3nc2NCC2CC2)c1,minimal effective concentration,Escherichia coli [1],1 µg/mL
c1ccc(CCNc2nc3nonc3nc2NCCc2ccccc2)cc1,minimal effective concentration,Escherichia coli [1],2 µg/mL
Clc1cccc(Nc2nc3nonc3nc2NCCc2ccccc2)c1,minimal effective concentration,Escherichia coli [1],0.5 µg/mL
same,selectivity ratio,[2],1.7
same,MIC,Escherichia coli [3],> 64 µg/mL
same,GI50,[4],0.83 µg/mL
Clc1cccc(Nc2nc3nonc3nc2NCCNc2ccc3ccccc3n2)c1,minimal effective concentration,Escherichia coli [1],16 µg/mL
FC(F)(F)c1cccc(CNc2nc3nonc3nc2Nc2cccc(Cl)c2)c1,minimal effective concentration,Escherichia coli [1],0.25 µg/mL
same,selectivity ratio,[2],22
same,MIC,Escherichia coli [3],> 64 µg/mL
same,GI50,[4],5.5 µg/mL
FC(F)CNc1nc2nonc2nc1Nc1cccc(Cl)c1,minimal effective concentration,Escherichia coli [1],2 µg/mL
FC(F)(F)Oc1cccc(CNc2nc3nonc3nc2Nc2cccc(Cl)c2)c1,minimal effective concentration,Escherichia coli [1],1 µg/mL
Clc1cccc(Nc2nc3nonc3nc2NC2CCCCC2)c1,minimal effective concentration,Escherichia coli [1],1 µg/mL
Clc1ccc(CNc2nc3nonc3nc2Nc2cccc(Cl)c2)cc1,minimal effective concentration,Escherichia coli [1],0.25 µg/mL
same,selectivity ratio,[2],19
same,MIC,Escherichia coli [3],> 64 µg/mL
same,GI50,[4],4.9 µg/mL
c1ccc2nc(NCCNc3nc4nonc4nc3NCCNc3ccc4ccccc4n3)ccc2c1,minimal effective concentration,Escherichia coli [1],> 16 µg/mL
Clc1cccc(Nc2nc3nonc3nc2NC2CC2)c1,minimal effective concentration,Escherichia coli [1],1 µg/mL
CCCCCCCCCCNc1nc2nonc2nc1NCCCCCCCCCC,minimal effective concentration,Escherichia coli [1],> 16 µg/mL
CCCCCCNc1nc2nonc2nc1Nc1cccc(Cl)c1,minimal effective concentration,Escherichia coli [1],1 µg/mL
CCCCCCCCCCCCNc1nc2nonc2nc1NCCCCCCCCCCCC,minimal effective concentration,Escherichia coli [1],> 16 µg/mL
Clc1cccc(Nc2nc3nonc3nc2NCC2COC2)c1,minimal effective concentration,Escherichia coli [1],> 16 µg/mL
CCCCCCCNc1nc2nonc2nc1Nc1cccc(Cl)c1,minimal effective concentration,Escherichia coli [1],0.5 µg/mL
same,selectivity ratio,[2],6.6
same,MIC,Escherichia coli [3],> 64 µg/mL
same,GI50,[4],3.3 µg/mL
CCCCNc1nc2nonc2nc1Nc1cccc(Cl)c1,minimal effective concentration,Escherichia coli [1],0.5 µg/mL
same,selectivity ratio,[2],11
same,MIC,Escherichia coli [3],> 64 µg/mL
same,GI50,[4],5.7 µg/mL
Fc1cccc(CNc2nc3nonc3nc2Nc2cccc(Cl)c2)c1,minimal effective concentration,Escherichia coli [1],1 µg/mL
CCCCCCCNc1nc2nonc2nc1NCCCCCCC,minimal effective concentration,Escherichia coli [1],0.5 µg/mL
same,selectivity ratio,[2],1.3
same,MIC,Escherichia coli [3],> 64 µg/mL
same,GI50,[4],0.65 µg/mL
CC(C)(C)OC(=O)N1CC(CNc2nc3nonc3nc2Nc2cccc(Cl)c2)C1,minimal effective concentration,Escherichia coli [1],4 µg/mL
Clc1cccc(CNc2nc3nonc3nc2NCc2cccc(Cl)c2)c1,minimal effective concentration,Escherichia coli [1],0.5 µg/mL
same,selectivity ratio,[2],3.2
same,MIC,Escherichia coli [3],> 64 µg/mL
same,GI50,[4],1.6 µg/mL
CCCCCCCCNc1nc2nonc2nc1NCCCCCCCC,minimal effective concentration,Escherichia coli [1],4 µg/mL
FC(F)(F)c1nc(NCCCNc2nc3nonc3nc2Nc2cccc(Cl)c2)ccc1Cl,MIC,Klebsiella pneumoniae [5],1 µg/mL
same,MIC,Salmonella typhimurium [6],0.5 µg/mL
same,MIC,Escherichia coli [7],1 µg/mL
same,minimal effective concentration,Escherichia coli [1],0.25 µg/mL
same,selectivity ratio,[2],35
same,MIC,Escherichia coli [3],> 64 µg/mL
same,MIC,Escherichia coli [8],0.5 µg/mL
same,fractional inhibitory concentration index (FICI),Escherichia coli [12],0.039
same,MIC,Pseudomonas aeruginosa [9],1 µg/mL
same,GI50,[4],8.7 µg/mL
same,MIC,Salmonella typhimurium [10],1 µg/mL
same,MIC,Acinetobacter baumannii [11],0.25 µg/mL
CCCCCNc1nc2nonc2nc1NCCCCC,minimal effective concentration,Escherichia coli [1],1 µg/mL
Clc1cccc(Nc2nc3nonc3nc2NCC2CCC2)c1,minimal effective concentration,Escherichia coli [1],1 µg/mL
Clc1cccc(Nc2nc3nonc3nc2NC2CCCC2)c1,minimal effective concentration,Escherichia coli [1],1 µg/mL
CC(C)(C)Nc1nc2nonc2nc1Nc1cccc(Cl)c1,minimal effective concentration,Escherichia coli [1],2 µg/mL
FC(F)(F)Oc1cccc(CNc2nc3nonc3nc2NCc2cccc(OC(F)(F)F)c2)c1,minimal effective concentration,Escherichia coli [1],0.125 µg/mL
same,selectivity ratio,[2],18
same,MIC,Escherichia coli [3],> 64 µg/mL
same,GI50,[4],2.3 µg/mL
FC(F)(F)c1cccc(CNc2nc3nonc3nc2NCc2cccc(C(F)(F)F)c2)c1,minimal effective concentration,Escherichia coli [1],> 16 µg/mL
CCCCCNc1nc2nonc2nc1Nc1cccc(Cl)c1,minimal effective concentration,Escherichia coli [1],0.5 µg/mL
same,selectivity ratio,[2],4.3
same,MIC,Escherichia coli [3],> 64 µg/mL
same,GI50,[4],2.1 µg/mL
Fc1cccc(CNc2nc3nonc3nc2NCc2cccc(F)c2)c1,minimal effective concentration,Escherichia coli [1],> 16 µg/mL
FC(F)(F)c1nc(NCCCNc2nc3nonc3nc2NCCCNc2ccc(Cl)c(C(F)(F)F)n2)ccc1Cl,minimal effective concentration,Escherichia coli [1],0.25 µg/mL
same,selectivity ratio,[2],10
same,MIC,Escherichia coli [3],> 64 µg/mL
same,GI50,[4],2.6 µg/mL
Clc1cccc(CNc2nc3nonc3nc2Nc2cccc(Cl)c2)c1,minimal effective concentration,Escherichia coli [1],0.5 µg/mL
same,selectivity ratio,[2],7.7
same,MIC,Escherichia coli [3],> 64 µg/mL
same,GI50,[4],3.8 µg/mL
Nc1nc2nonc2nc1Nc1cccc(Cl)c1,minimal effective concentration,Escherichia coli [1],4 µg/mL
CC(C)CCNc1nc2nonc2nc1Nc1cccc(Cl)c1,minimal effective concentration,Escherichia coli [1],1 µg/mL
Clc1cccc(Nc2nc3nonc3nc2NC2CCC2)c1,minimal effective concentration,Escherichia coli [1],1 µg/mL
"[H][C@@]1([C@@H](C)O)NC(=O)[C@H](CCN)NC(=O)[C@H](CCN)NC(=O)[C@H](CC(C)C)NC(=O)[C@@H](CC(C)C)NC(=O)[C@H](CCN)NC(=O)[C@@H](NC(=O)[C@H](CCN)NC[C@H](NC(=O)[C@H](CCN)NC(=O)CCCCC(C)C)[C@@H](C)O)CCNC1=O.[H][C@@]1([C@@H](C)O)NC(=O)[C@H](CCN)NC(=O)[C@H](CCN)NC(=O)[C@H](CC(C)C)NC(=O)[C@@H](CC(C)C)NC(=O)[C@H](CCN)NC(=O)[C@@H](NC(=O)[C@H](CCN)NC[C@H](NC(=O)[C@H](CCN)NC(=O)CCCCC(C)CC)[C@@H](C)O)CCNC1=O (stereo partly drawn) (HELM PEPTIDE1{[C[C@@H](O)[C@H](CN[C@@H](CCN)C(=O)[*:2])N[*:3]].[Dab].[Dab].[dL].L.[Dab].[Dab].T}|PEPTIDE2{[CCC(C)CCCCC(=O)[*:2]].[Dab]}$PEPTIDE1,PEPTIDE2,1:R3-2:R2|PEPTIDE1,PEPTIDE1,2:R3-8:R2$$$V2.0)",MIC,Escherichia coli [13],8 µg/mL
same,MIC,Salmonella typhimurium [14],8 µg/mL
same,MIC,Pseudomonas aeruginosa [15],4 µg/mL
same,MIC,Acinetobacter baumannii [16],8 µg/mL
same,MIC,Klebsiella pneumoniae [17],16 µg/mL
same,MIC,Salmonella typhimurium [18],16 µg/mL
same,MIC,Escherichia coli [19],8 µg/mL

# Reference: ChEMBL document CHEMBL6087399, “Extended structure-activity relationship studies of the [1,2,5]oxadiazolo[3,4-b]pyrazine-containing colistin adjuvants” (Bioorg Med Chem Lett, 2025)
